Assay results published in article PMC12005229, “Final results from the phase Ia/Ib study of the novel bromodomain and extra-terminal domain inhibitor, BI 894999, in patients with advanced solid tumors or diffuse large B-cell lymphoma” (ESMO Open, 2025).
“And” between values parts separate entries of the source, which are not always exact repeats. Equal values may be shown once. “Also recorded” adds a separate entry of the source. Read-outs that look alike come from different tables or passages of the source.

Assays:
[1] = review of non-Good Laboratory Practice preclinical assays for cardiac toxicity; conditions: review prompted by elevated troponin T
Excerpt: Some patients experienced elevated troponin T levels, leading to a review of troponin T levels, electrocardiogram data, clinical summaries, and non-Good Laboratory Practice preclinical assays. […] This also corresponded with a lack of cardiotoxicity reported in preclinical studies in animals[17] and this was not a toxicity previously reported with BET inhibitors.[35] It was concluded that the cause of troponin T elevation may be multifactorial, but not clinically significant to preclude further clinical development.[17]

[2] = test system: patients with solid tumors; design: method as in PMID 37556913; conditions: cited from earlier work; for maximum tolerated dose (MTD): solid tumors
BRD4-BD1 = test system: BRD4-BD1; design: method as in PMID 35444289; conditions: read-out: IC50, inhibition of interaction of acetylated histone H4-derived peptide with BRD4-BD1; cited from earlier work
BRD4-BD2 = test system: BRD4-BD2; design: method as in PMID 35444289; conditions: read-out: IC50, inhibition of interaction of acetylated histone H4-derived peptide with BRD4-BD2; cited from earlier work
[3] = test system: colorectal cancer (CRC) cell lines; design: method as in earlier work; conditions: cited from earlier work
patients with DLBCL = assay: phase Ia DLBCL extension: DLTs, MTD, adverse events, exposure; type: in vivo; conditions: for DLT grade ≥3 / DLT / DLT duration / DLT grade / DLT outcome: individual patient events
Excerpt: The extension to the phase Ia dose escalation evaluated schedules B and C for patients with DLBCL.

[4] = test system: nuclear protein in testis (NUT) carcinoma xenograft models; design: method as in PMID 35444289; conditions: cited from earlier work
[5] = DLBCL phase Ia extension n = 18
[6] = DLBCL, on-treatment period, schedule B 2.0 mg
[7] = DLBCL, on-treatment period, schedule C 4.0/2.0 mg
[8] = DLBCL, on-treatment period, schedule C 5.0/2.5 mg
[9] = DLBCL, schedule B 1.5 mg, MTD evaluation period
[10] = DLBCL, schedule B 2.0 mg, MTD evaluation period
[11] = DLBCL, schedule B 2.5 mg, MTD evaluation period
[12] = phase Ia DLBCL, MTD evaluation period

SMILES: CNc1nc(-c2nc3ccc(N4CCN(C)CC4)cc3n2Cc2ccccc2)cn2c(C)nnc12 [BI 894999]
- preclinical evidence of cardiac toxicity [1]: no preclinical evidence of potential cardiac toxicity
- disease control (CR, PR or SD) ([2]; initial phase Ia, investigator's assessment): 26.0%
- best response PR ([2]; initial phase Ia): 3.9%
- patients with grade ≥3 DLTs ([2]; initial phase Ia): 22 of 77
- maximum tolerated dose (MTD) ([2]; schedule A (days 1-21 of 3-week cycle)): 1.5 mg
- maximum tolerated dose (MTD) ([2]; schedule B (days 1-14 of 3-week cycle)): 2.5 mg
- IC50 (BRD4-BD1): 5 ± 3 nM
- IC50 (BRD4-BD2): 41 ± 30 nM
- activity against colorectal cancer (CRC) cell lines [3]: demonstrated activity
- AEs leading to death (patients with DLBCL; [5]): 1 (5.6) n (%)
- AEs leading to discontinuation of trial drug (patients with DLBCL; [5]): 4 (22.2) n (%)
- AEs leading to dose reduction (patients with DLBCL; [5]): 3 (16.7) n (%)
- Any AE (patients with DLBCL; [5]): 18 (100) n (%)
- DLT in on-treatment period (patients with DLBCL; [5]): 8 (44.4) n (%)
- Treatment-related AEs (patients with DLBCL; [5]): 15 (83.3) n (%)
- Treatment-related serious AEs (patients with DLBCL; [5]): 2 (11.1) n (%)
- Anemia, treatment-related AE, any grade (patients with DLBCL; DLBCL phase Ia n = 18): 5 (27.8) n (%)
- Anemia, treatment-related AE, grade ≥3 (patients with DLBCL; DLBCL phase Ia n = 18): 5 (27.8) n (%)
- Asthenia, treatment-related AE, any grade (patients with DLBCL; DLBCL phase Ia n = 18): 2 (11.1) n (%)
- Asthenia, treatment-related AE, grade ≥3 (patients with DLBCL; DLBCL phase Ia n = 18): 0 n (%)
- Decreased appetite, treatment-related AE, any grade (patients with DLBCL; DLBCL phase Ia n = 18): 4 (22.2) n (%)
- Decreased appetite, treatment-related AE, grade ≥3 (patients with DLBCL; DLBCL phase Ia n = 18): 0 n (%)
- Decreased platelet count, treatment-related AE, any grade (patients with DLBCL; DLBCL phase Ia n = 18): 2 (11.1) n (%)
- Decreased platelet count, treatment-related AE, grade ≥3 (patients with DLBCL; DLBCL phase Ia n = 18): 2 (11.1) n (%)
- Diarrhea, treatment-related AE, any grade (patients with DLBCL; DLBCL phase Ia n = 18): 9 (50.0) n (%)
- Diarrhea, treatment-related AE, grade ≥3 (patients with DLBCL; DLBCL phase Ia n = 18): 0 n (%)
- Dysgeusia, treatment-related AE, any grade (patients with DLBCL; DLBCL phase Ia n = 18): 2 (11.1) n (%)
- Dysgeusia, treatment-related AE, grade ≥3 (patients with DLBCL; DLBCL phase Ia n = 18): 0 n (%)
- Epistaxis, treatment-related AE, any grade (patients with DLBCL; DLBCL phase Ia n = 18): 2 (11.1) n (%)
- Epistaxis, treatment-related AE, grade ≥3 (patients with DLBCL; DLBCL phase Ia n = 18): 0 n (%)
- Fatigue, treatment-related AE, any grade (patients with DLBCL; DLBCL phase Ia n = 18): 4 (22.2) n (%)
- Fatigue, treatment-related AE, grade ≥3 (patients with DLBCL; DLBCL phase Ia n = 18): 0 n (%)
- Hematoma, treatment-related AE, any grade (patients with DLBCL; DLBCL phase Ia n = 18): 2 (11.1) n (%)
- Hematoma, treatment-related AE, grade ≥3 (patients with DLBCL; DLBCL phase Ia n = 18): 0 n (%)
- Muscle spasms, treatment-related AE, any grade (patients with DLBCL; DLBCL phase Ia n = 18): 2 (11.1) n (%)
- Muscle spasms, treatment-related AE, grade ≥3 (patients with DLBCL; DLBCL phase Ia n = 18): 0 n (%)
- Nausea, treatment-related AE, any grade (patients with DLBCL; DLBCL phase Ia n = 18): 5 (27.8) n (%)
- Nausea, treatment-related AE, grade ≥3 (patients with DLBCL; DLBCL phase Ia n = 18): 0 n (%)
- Neutropenia, treatment-related AE, any grade (patients with DLBCL; DLBCL phase Ia n = 18): 4 (22.2) n (%)
- Neutropenia, treatment-related AE, grade ≥3 (patients with DLBCL; DLBCL phase Ia n = 18): 3 (16.7) n (%)
- Thrombocytopenia, treatment-related AE, any grade (patients with DLBCL; DLBCL phase Ia n = 18): 11 (61.1) n (%)
- Thrombocytopenia, treatment-related AE, grade ≥3 (patients with DLBCL; DLBCL phase Ia n = 18): 8 (44.4) n (%)
- Troponin increased, treatment-related AE, any grade (patients with DLBCL; DLBCL phase Ia n = 18): 2 (11.1) n (%)
- Troponin increased, treatment-related AE, grade ≥3 (patients with DLBCL; DLBCL phase Ia n = 18): 1 (5.6) n (%)
- DLT grade ≥3 (patients with DLBCL; DLBCL, on-treatment period, schedule B 1.5 mg): Increased troponin
- DLT duration, melena (patients with DLBCL; [6]): 7 days
- DLT grade, melena (patients with DLBCL; [6]): 3
- DLT grade ≥3 (patients with DLBCL; [6]): Thrombocytopenia; also recorded: Melena
- DLT grade ≥3 (patients with DLBCL; DLBCL, on-treatment period, schedule B 2.5 mg): Thrombocytopenia; also recorded: Sepsis; also recorded: Febrile neutropenia
- DLT grade, decreased platelet count (patients with DLBCL; [7]): 4
- DLT grade ≥3 (patients with DLBCL; [7]): Decreased platelet
- DLT duration, thrombocytopenia (patients with DLBCL; [8]): 8 days
- DLT grade, neutropenia (patients with DLBCL; [8]): 4
- DLT grade, thrombocytopenia (patients with DLBCL; [8]): 4
- DLT grade ≥3 (patients with DLBCL; [8]): Neutropenia; also recorded: Thrombocytopenia
- DLT (patients with DLBCL; [9]): Increased troponin
- DLT duration (patients with DLBCL; [9]): 5 days
- DLT grade (patients with DLBCL; [9]): 3
- DLT outcome (patients with DLBCL; [9]): Recovered
- DLT (patients with DLBCL; [10]): Thrombocytopenia
- DLT duration (patients with DLBCL; [10]): 11 days
- DLT grade (patients with DLBCL; [10]): 4
- DLT outcome (patients with DLBCL; [10]): Not recovered
- DLT (patients with DLBCL; [11]): Thrombocytopenia; also recorded: Sepsis; also recorded: Febrile neutropenia
- DLT duration (patients with DLBCL; [11]): 5 days and 6 days and 7 days and 2 days
- DLT grade (patients with DLBCL; [11]): 4 and 3
- DLT outcome (patients with DLBCL; [11]): Not recovered; also recorded: Recovered
- maximum tolerated dose (MTD) (patients with DLBCL; DLBCL, schedule B (days 1-14/21)): 1.5 mg
- maximum tolerated dose (MTD) (patients with DLBCL; DLBCL, schedule C): not declared
- anemia, grade ≥3 treatment-related AE (patients with DLBCL; phase Ia DLBCL): 27.8%
- anemia, treatment-related AE of any grade (patients with DLBCL; phase Ia DLBCL): 27.8%
- decreased platelet count, grade ≥3 treatment-related AE (patients with DLBCL; phase Ia DLBCL): 11.1%
- decreased platelet count, treatment-related AE of any grade (patients with DLBCL; phase Ia DLBCL): 11.1%
- diarrhea, treatment-related AE of any grade (patients with DLBCL; phase Ia DLBCL): 50.0%
- discontinuation because of DLT (patients with DLBCL; phase Ia DLBCL): 11.1%
- discontinuation because of other AEs (patients with DLBCL; phase Ia DLBCL): 5.6%
- discontinuation because of progressive disease (patients with DLBCL; phase Ia DLBCL): 83.3%
- dose discontinuations due to AEs (patients with DLBCL; phase Ia DLBCL): 22.2%
- dose reductions due to AEs (patients with DLBCL; phase Ia DLBCL): 16.7%
- fatigue, treatment-related AE of any grade (patients with DLBCL; phase Ia DLBCL): 22.2%
- increased troponin, treatment-related AE of any grade (patients with DLBCL; phase Ia DLBCL): 11.1%
- lymph node pain leading to dose discontinuation (patients with DLBCL; phase Ia DLBCL): 5.6%
- median time to first dose reduction (patients with DLBCL; phase Ia DLBCL): 36.0 days
- nausea, treatment-related AE of any grade (patients with DLBCL; phase Ia DLBCL): 27.8%
- neutropenia leading to dose discontinuation (patients with DLBCL; phase Ia DLBCL): 5.6%
- neutropenia, grade ≥3 treatment-related AE (patients with DLBCL; phase Ia DLBCL): 16.7%
- neutropenia, treatment-related AE of any grade (patients with DLBCL; phase Ia DLBCL): 22.2%
- patients who underwent dose reductions (patients with DLBCL; phase Ia DLBCL): 16.7%
- patients with AEs of any grade (patients with DLBCL; phase Ia DLBCL): 100%
- patients with treatment-related AEs (patients with DLBCL; phase Ia DLBCL): 83.3%
- thrombocytopenia leading to dose discontinuation (patients with DLBCL; phase Ia DLBCL): 11.1%
- thrombocytopenia, grade ≥3 treatment-related AE (patients with DLBCL; phase Ia DLBCL): 44.4%
- thrombocytopenia, treatment-related AE of any grade (patients with DLBCL; phase Ia DLBCL): 61.1%
- DLT grade 3 febrile neutropenia (patients with DLBCL; [12]): 7.7%
- DLT grade 3 increased troponin (patients with DLBCL; [12]): 7.7%
- DLT grade 4 sepsis (patients with DLBCL; [12]): 7.7%
- DLT grade 4 thrombocytopenia (patients with DLBCL; [12]): 23.1%
- assessable patients with DLTs (patients with DLBCL; [12]): 4/17
- total patients with DLTs during the on-treatment period (patients with DLBCL; phase Ia DLBCL, schedule B): 5 n
- patients with DLTs (patients with DLBCL; phase Ia DLBCL, schedule B 1.5 mg, MTD evaluation period): 1 n
- patients with DLTs (patients with DLBCL; phase Ia DLBCL, schedule B 2.0 mg, MTD evaluation period): 1 n
- patients with DLTs (patients with DLBCL; phase Ia DLBCL, schedule B 2.5 mg, MTD evaluation period): 2 n
- patients with DLTs (patients with DLBCL; phase Ia DLBCL, schedule B (n = 13), MTD evaluation period): 30.8%
- total patients with DLTs during the on-treatment period (patients with DLBCL; phase Ia DLBCL, schedule C): 3 n
- patients with DLTs (patients with DLBCL; phase Ia DLBCL, schedule C, MTD period): No patients receiving schedule C experienced DLTs; also recorded: a No DLBCL patients on schedule C experienced DLTs on BI 894999
- effect in NUT carcinoma xenograft models [4]: tumor regressions
